Values quoted from earlier work as cited in patent publication US20070185067A1, “Ciclesonide and glycopyrronium combination” (Altana Pharma AG, priority 2004, published 2007).

Columns and labels:
[1] = compared with budesonide
[2] = not given; remark: listed apart in the source

CC(C)C(=O)OCC(=O)[C@@]12O[C@H](C3CCCCC3)O[C@@H]1C[C@H]1[C@@H]3CCC4=CC(=O)C=C[C@]4(C)[C@H]3[C@@H](O)C[C@@]12C [Ciclesonide, [11β,16α(R)]-16,17-[(Cyclohexylmethylen)bis(oxy)]-11-hydroxy-21-(2-methyl-1-oxo-prop-oxy)pregna-1,4-dien-3,20-dion]
metabolism by liver oxidases (liver oxidases): very high
concentration of the drug in the lungs (lungs): high
absorption after oral administration (oral administration): only moderately absorbed
plasma half-life (plasma): low plasma half-life
anti-inflammatory activity relative to budesonide [1]: higher
systemic activity relative to budesonide ([2]; compared with budesonide): three times lower than that of budesonide
systemic activity ([2]; in vivo): low systemic activity
